Assays:
[1] = Cytotoxicity against human HCT116 cells assessed as cell growth inhibition after 48 hrs by MTT assay; format: functional, cell-based; settings: HCT-116, 48 h
[2] = Cytotoxicity against human HeLa cells assessed as cell growth inhibition after 48 hrs by MTT assay; format: functional, cell-based
[3] = Cytotoxicity against human Bel7402 cells assessed as cell growth inhibition after 48 hrs by MTT assay; format: functional, cell-based; settings: Bel-7402, 48 h
[4] = Cytotoxicity against human L02 cells assessed as cell growth inhibition after 48 hrs by MTT assay; format: toxicity, cell-based
[5] = Cytotoxicity against human HCT116 cells assessed as cell growth inhibition at 100 uM after 48 hrs by MTT assay; format: functional; settings: HCT-116, 48 h, read-out: GI
[6] = Cytotoxicity against human HeLa cells assessed as cell growth inhibition at 100 uM after 48 hrs by MTT assay; format: functional; settings: read-out: GI
[7] = Cytotoxicity against human Bel7402 cells assessed as cell growth inhibition at 100 uM after 48 hrs by MTT assay; format: functional; settings: Bel-7402, 48 h, read-out: GI
[8] = Cytotoxicity against human L02 cells assessed as cell growth inhibition at 100 uM after 48 hrs by MTT assay; format: toxicity, cell-based; settings: read-out: GI
HCT-116 = test: Selectivity index, ratio of IC50 for human L02 cells to IC50 for human HCT116 cells; format: functional
Bel-7402 = test: Selectivity index, ratio of IC50 for human L02 cells to IC50 for human Bel7402 cells; format: functional

Compound | IC50 [1] [µM] | IC50 [2] [µM] | IC50 [3] [µM] | IC50 at 48 h [4] [µM] | inhibition of growth at 100 µM [5] [%] | inhibition of growth at 100 µM [6] [%] | inhibition of growth at 100 µM [7] [%] | inhibition at 48 h, 100 µM [8] [%] | Ratio IC50 (HCT-116) | Ratio IC50 (Bel-7402)
COc1cc(OC)cc(/C(C#N)=C/c2cc(OC)c(OC)c(OC)c2)c1 | > 100 | > 100 | > 100 | > 100 | 24.1 | 24.9 | 22.3 | 11.6 |  | 
COc1cc(OC)cc(/C(C#N)=C/c2cccc(Br)c2)c1 | > 100 | > 100 | > 100 | > 100 | 38.2 | 40.2 | 19.8 | 43.2 |  | 
COc1cc(OC)cc(/C(C#N)=C/c2ccc(C)cc2)c1 | 2 | > 100 | 0.59 | > 100 |  | 38.6 |  | 23.1 | >50 | >169.49
CCc1ccc(/C=C(\C#N)c2cc(OC)cc(OC)c2)cc1 | 1.3 | > 100 | 0.35 | > 100 |  | 40.6 |  | 32.8 | >76.92 | >285.71
COc1cc(OC)cc(/C(C#N)=C/c2ccccc2Br)c1 | 8.44 | > 100 | > 100 | > 100 |  | 37.2 | 17.4 | 8.2 | >11.84 | 
COc1cc(OC)cc(/C(C#N)=C/c2ccccn2)c1 | 5.15 | 56 | 80.5 | 75.5 |  |  |  |  | 14.66 | 0.94
COc1cc(OC)cc(/C(C#N)=C/c2cccc3ccccc23)c1 | 20.4 | > 100 | 26.4 | 73.6 |  | 44.9 |  |  | 3.59 | 2.78
CCCCOc1ccc(/C=C(\C#N)c2cc(OC)cc(OC)c2)cc1 | > 100 | > 100 | > 100 | > 100 | 45 | 18.6 | 15.4 | 35.7 |  | 
COc1cc(OC)cc(/C(C#N)=C/c2ccccc2Cl)c1 | 8.64 | 28.2 | 28.5 | > 100 |  |  |  | 11.8 | >11.57 | >3.51
COc1cc(OC)cc(/C(C#N)=C/c2ccco2)c1 | 3.31 | 112 | 75.7 | > 100 |  |  |  | 38.5 | >30.21 | >1.32
COc1cc(OC)cc(/C(C#N)=C/c2ccccc2C(F)(F)F)c1 | > 100 | > 100 | > 100 | > 100 | 26.6 | 4.9 | 11.4 | 33.6 |  | 
CCCOc1ccc(/C=C(\C#N)c2cc(OC)cc(OC)c2)cc1 | 14.2 | > 100 | 42 | > 100 |  | 27.6 |  | 34.4 | >7.06 | >2.38
COc1cc(OC)cc(/C(C#N)=C/c2c(F)cccc2Cl)c1 | > 100 | > 100 | > 100 | > 100 | 32.9 | 35.9 | 11.1 | 41.8 |  | 
CCOc1cccc(/C=C(\C#N)c2cc(OC)cc(OC)c2)c1 | > 100 | > 100 | > 100 | > 100 | 38.8 | 8.9 | 5.1 | 18.5 |  | 
COc1cc(OC)cc(/C(C#N)=C/c2cccc(F)c2)c1 | 38 | > 100 | 61.3 | 96 |  | 41.7 |  | 96 | >2.63 | >1.63

Source: ChEMBL document CHEMBL3872241, “Synthesis and bioactivity evaluation of 2,3-diaryl acrylonitrile derivatives as potential anticancer agents” (Bioorg Med Chem Lett, 2017)
